The values below come from patent US20050048508A1, “Trehalose receptor and method for detecting trehalose with the same” (KABUSHIKI KAISHA HAYASHIBARA SEIBUTSU KAGAKU KENKYUJO, priority 2002, published 2005).

The conditions of test [1]: relative to sucrose; cited from earlier work.
The target of test [2] is T1, trehalose receptor (G protein α-subunits and T1R3) (Mus musculus, UniProt Q925D8, I706N).
T1 construct: expressed in transfected cells; host or cells: 293 cells, RCB 1637 (human embryonic kidney)
T1 sequence (Q925D8 21-858 I706N): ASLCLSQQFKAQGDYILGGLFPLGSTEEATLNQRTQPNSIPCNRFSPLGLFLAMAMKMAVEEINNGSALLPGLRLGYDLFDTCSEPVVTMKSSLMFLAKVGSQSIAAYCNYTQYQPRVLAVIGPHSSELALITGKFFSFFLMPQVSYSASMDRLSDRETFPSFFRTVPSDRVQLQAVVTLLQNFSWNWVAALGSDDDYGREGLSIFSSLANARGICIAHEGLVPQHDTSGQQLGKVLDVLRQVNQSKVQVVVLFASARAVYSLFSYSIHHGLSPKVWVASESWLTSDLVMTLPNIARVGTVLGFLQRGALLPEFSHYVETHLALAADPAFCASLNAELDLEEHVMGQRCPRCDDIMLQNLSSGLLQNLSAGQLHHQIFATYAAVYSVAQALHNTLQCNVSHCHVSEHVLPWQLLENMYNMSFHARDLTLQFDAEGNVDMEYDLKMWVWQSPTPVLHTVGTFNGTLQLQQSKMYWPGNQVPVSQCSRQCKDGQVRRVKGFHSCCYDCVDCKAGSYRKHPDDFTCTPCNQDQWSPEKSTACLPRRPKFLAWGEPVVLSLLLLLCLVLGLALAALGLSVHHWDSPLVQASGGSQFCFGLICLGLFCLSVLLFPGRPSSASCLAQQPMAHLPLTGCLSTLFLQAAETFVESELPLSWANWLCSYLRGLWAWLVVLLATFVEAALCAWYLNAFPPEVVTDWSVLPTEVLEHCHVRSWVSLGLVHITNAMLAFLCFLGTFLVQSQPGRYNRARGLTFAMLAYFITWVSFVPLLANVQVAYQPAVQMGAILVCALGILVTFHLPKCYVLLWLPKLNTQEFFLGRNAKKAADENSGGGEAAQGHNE
The test is described as follows: Quantitation of trehalose using trehalose receptor, 96-well microplate fluorescence assay. Format: cell-based. The conditions noted are these: for Fluorescence intensity (integral value): 0.1 ml/well added to 100 µl cell suspension, ex 494 nm, em 516 nm. The method, then: The captioned reactivity test was conducted according to a conventional intracellular calcium ion assay: 293 Cells prepared in Example 3, capable of coexpressing the G protein α-subunits and the sweet taste receptor(s), were cultured in a plastic petri dish for cell culture until reaching its confluent phase. Thereafter, the cells were detached from the inner surface of the petri dish with a 0.05% (v/v) trypsin solution and a 0.53 mM EDTA solution, suspended in D-MEM supplemented with 10% (v/v) fetal calf serum to give a cell density of 1×10^6 cells/ml, and allowed to intake “FLUO-4. AM”, a reagent for detecting intracellular calcium ion commercialized by Molecular Probes Inc., Ore., USA, by adding to the cell suspension to give a final concentration of 2 μM and incubating the cells at 37 ° C. for 30 to 90 min. The resulting cells were washed with a buffer for detecting calcium ion, which contained 10 mM HEPES (pH 7.4), 130 mM sodium chloride, 5.4 mM potassium chloride, 2 mM calcium chloride, 1 mM magnesium chloride, 5.5 mM D-glucose, 0.1% (v/v) calf serum albumin, and 1 mM sodium pyruvate to remove the reagent remained extracellularly; suspended in a fresh preparation of the same buffer to give a cell density of 2.67 ×10^7 cells/ml; filtered with a membrane with a pore size of 100 μm mesh; and allowed to stand at 25° C. for 30 min. Two milliliters of the resultant cell suspension was injected into a glass cuvette, commercialized by Hitachi, Ltd., Tokyo, Japan, and analyzed on “HITACHI 650-40”, a fluorescence spectrophotometer commercialized by Hitachi, Ltd., Tokyo, Japan.
One hundred microliter aliquots of the cell suspension in Example 4 were placed in commercially available 96-well microplates, followed by placing 0.1 ml/well of any of trehalose solutions with different concentrations of 1, 2, 5, 10, 20, 50, 100, 200, 500, 1,000, and 2,000 mM, prepared with trehalose and the same buffer for calcium ion assay as used in Example 4; and assayed on “FLUOROSCAN ASCENT W/DF”, an automatic fluorescence spectrophotometer for multi-plates, Dainippon Pharmaceutical Co., Ltd., Tokyo, Japan, at an excitation wavelength of 494 nm and a fluorescence wavelength of 516 nm, followed by calculating the integral values for the detected fluorescence intensities.

The structures appear in SMILES notation.

Regarding `OC[C@H]1O[C@H](O[C@H]2O[C@H](CO)[C@@H](O)[C@H](O)[C@H]2O)[C@H](O)[C@@H](O)[C@@H]1O` [Trehalose], the Sweetening power in test [1] is reported as 45%. For the same compound, the “Concentration at which trehalose is detectable” value in test [2] (trehalose receptor cells, fluorescence assay of Table 5) is given as no less than 5 mM. Also, the “Fluorescence intensity (integral value)” value in test [2] (trehalose solution 1 mM) turned out to be 0.2; in test [2] (trehalose solution 2 mM), 0.5; in test [2] (trehalose solution 5 mM), 10; in test [2] (trehalose solution 10 mM), 19; in test [2] (trehalose solution 20 mM), 29; in test [2] (trehalose solution 50 mM), 45. Besides, the “Fluorescence intensity (integral value)” value worked out at 82 in test [2] (trehalose solution 100 mM); 159 in test [2] (trehalose solution 200 mM); 421 in test [2] (trehalose solution 500 mM); 670 in test [2] (trehalose solution 1,000 mM); 720 in test [2] (trehalose solution 2,000 mM).
